Source: publication PMC4201327 (Organic letters, 2014)

Target: Egt1 (Neurospora crassa, UniProt Q7RX33)
Assay: oxygen consumption, NeoFox oxygen electrode
Format: biochemical

Egt1, sequence (Q7RX33 whole entry): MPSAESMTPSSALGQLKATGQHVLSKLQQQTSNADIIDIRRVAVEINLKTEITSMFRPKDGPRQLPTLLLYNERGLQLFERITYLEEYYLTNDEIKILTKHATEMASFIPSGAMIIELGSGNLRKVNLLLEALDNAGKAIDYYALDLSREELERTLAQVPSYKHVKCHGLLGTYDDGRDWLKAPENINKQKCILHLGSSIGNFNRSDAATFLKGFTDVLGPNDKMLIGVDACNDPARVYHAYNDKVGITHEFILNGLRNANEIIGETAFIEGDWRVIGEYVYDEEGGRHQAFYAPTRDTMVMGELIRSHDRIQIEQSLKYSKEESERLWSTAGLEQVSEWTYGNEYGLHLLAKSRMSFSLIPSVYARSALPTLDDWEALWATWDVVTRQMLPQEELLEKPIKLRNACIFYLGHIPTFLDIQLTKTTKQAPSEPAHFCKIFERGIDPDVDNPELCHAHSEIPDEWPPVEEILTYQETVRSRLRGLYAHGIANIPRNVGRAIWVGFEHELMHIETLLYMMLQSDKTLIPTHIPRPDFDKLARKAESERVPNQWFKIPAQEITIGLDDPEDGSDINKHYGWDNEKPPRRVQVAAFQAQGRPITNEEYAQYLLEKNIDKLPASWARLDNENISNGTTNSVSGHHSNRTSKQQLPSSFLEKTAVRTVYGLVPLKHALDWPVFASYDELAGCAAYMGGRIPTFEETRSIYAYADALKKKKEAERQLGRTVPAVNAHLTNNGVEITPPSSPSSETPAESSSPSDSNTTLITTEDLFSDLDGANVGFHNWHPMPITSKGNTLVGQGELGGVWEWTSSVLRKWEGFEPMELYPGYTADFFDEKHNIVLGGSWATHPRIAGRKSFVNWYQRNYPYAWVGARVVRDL

Question: `C[N+](C)(C)[C@@H](Cc1cnc[nH]1)C(=O)[O-]` [compound 2, hercynine] was tested. Which Km did it give?
Answer: Its Km is 0.436 ± 0.03 mM.

Question: How did the Km turn out when `N[C@@H](CCC(=O)N[C@@H](CS)C(=O)O)C(=O)O` [γ-Glu-Cys] was run?
Answer: The Km was 7.68 ± 1.11 mM.
